Test results published in ChEMBL document CHEMBL4665786, “Cellular Target Proteome in Breast Cancer Cells of an Oplopane Sesquiterpenoid Isolated from Tussilago farfara” (J Nat Prod, 2020).

Experiments:
[1] = tested on: MDA-MB-231; test: Antiproliferative activity against human MDA-MB-231 cells by MTT assay; assay type: functional, cell-based
[2] = tested on: MCF7; test: Antiproliferative activity against human MCF7 cells by MTT assay; assay type: functional, cell-based

Row | IC50 [1] | IC50 [2] | SMILES
1 | 7.3 µM | 12.8 µM | C=C1[C@H]2[C@@H]([C@@H]([C@H](C)OC(C)=O)C(=O)[C@H]2OC(=O)C(C)CC)[C@H](C(C)C)C[C@H]1OC(=O)/C=C(\C)CC (stereo partly specified)
2 | > 10 µM | > 10 µM | C=C(C1C[C@@H]2O[C@]2(C)C(=O)[C@H]1OC(C)=O)[C@H](CC=C(C)C)OC(=O)/C(C)=C\C (stereo partly specified)
3 | > 90 µM | – | C=C1[C@@H]2C(O)C(=O)C(C(C)OC)[C@H]2[C@H](C(C)C)C[C@H]1OC(=O)/C=C(\C)CC (stereo partly specified)
4 | 5.5 µM | 14.1 µM | C/C=C1\C(=O)[C@@H](OC(=O)C(C)CC)[C@@H]2[C@@H]1[C@H](C(C)C)C[C@@H](OC(=O)/C=C(\C)CC)C2(O)CN=[N+]=[N-] (stereo partly specified)
5 | > 10 µM | > 10 µM | C=C1[C@H](OC(=O)/C=C(\C)CC)C[C@@H](C(C)C)[C@@H]2[C@@H]([C@H](C)OC(C)=O)C(=O)C[C@@H]12
6 | > 10 µM | > 10 µM | C=C1[C@H](OC(=O)/C=C(\C)CC)C[C@@H](C(C)C)[C@@H]2/C(=C/C)C(=O)C[C@@H]12
7 | > 10 µM | > 10 µM | C=C1[C@H](OC(=O)/C=C(\C)CC)C[C@@H](C(C)C)[C@@H]2/C(=C\C)C(=O)C[C@@H]12
8 | 11.3 µM | – | C=C1[C@@H]2C(O)C(=O)/C(=C\C)[C@H]2[C@H](C(C)C)C[C@H]1OC(=O)/C=C(\C)CC (stereo partly specified)
9 | 8.6 µM | 17.6 µM | C/C=C1\C(=O)[C@@H](OC(=O)C(C)CC)[C@@H]2[C@@H]1[C@H](C(C)C)C[C@@H](OC(=O)/C=C(\C)CC)C21CO1 (stereo partly specified)
10 | > 90 µM | – | C=C1[C@H]2[C@@H](C(C(C)OC)C(=O)[C@H]2OC(=O)C(C)CC)[C@H](C(C)C)C[C@H]1OC(=O)/C=C(\C)CC (stereo partly specified)
11 | > 10 µM | > 10 µM | C=C(C1[C@H](OC(C)=O)C(=O)[C@@]2(C)O[C@H]2[C@@H]1OC(C)=O)[C@H](CC=C(C)C)OC(=O)/C(C)=C\C (stereo partly specified)
12 | > 10 µM | > 10 µM | C=C(C1C[C@@H]2O[C@]2(C)C(=O)[C@H]1OC(=O)/C(C)=C\C)[C@H](CC=C(C)C)OC(=O)/C(C)=C\C (stereo partly specified)
